Data taken from patent US20040067998A1, “Antifungal and/or antiparasitic pharmaceutical composition and novel indole derivatives as active principle of such a composition” (priority 2003, published 2004).
Converted amounts (≈) assume the structure as drawn. “And” between values parts separate entries of the source, which are not always exact repeats. Equal entries are not always repeated. Where two headings read alike, the source gives them in different places.

Columns and labels:
Format in all cases: cell-based
[1] = system: Candida albicans (strain n° CA980001); experiment: Antifungal activity on a clinical strain of Candida albicans (MTT colorimetric microplate test); conditions: for CMI or CI80 Candida albicans (CA980001) / MIC: strain CA980001; for MIC: read-out: CMI or CI80 Candida albicans (CA980001); for activity of inhibition of Candida albicans (in words): summary of Tables 27 to 40
[2] = system: promastigote stage of Leishmania mexicana; experiment: Antiparasitic activity on the promastigote form of Leishmania (MTT); conditions: for IC50: read-out: CI50 Leishmania mexicana Promastigotes
[3] = system: Aspergillus fumigatus (strain n°AF 980003); experiment: Antifungal activity on a clinical strain of Aspergillus fumigatus (Alamar Blue microplate test); conditions: for CMI or CI80 Aspergillus fumigatus (AF980003) / MIC: strain AF980003; for activity against Aspergillus fumigatus (in words): summary of Tables 27 to 40; for MIC: read-out: CMI or CI80 Aspergillus fumigatus (AF980003)
[4] = promastigotes, 36 h at 26° C., MTT
[5] = Candida albicans, 24 h at 37° C., MTT
[6] = Leishmania mexicana, promastigotes, 36 h at 26° C., MTT
[7] = Aspergillus fumigatus, Alamar Blue

Fc1cccc(Cn2cc(Cn3ccnc3)c3ccccc32)c1 [compound 5]
CMI or CI80 Candida albicans (CA980001) ([1]; 24 h at 37° C., MTT): 68 ± 1 μM and 20.76 ± 1 μg/ml
CI50 Leishmania mexicana Promastigotes [2, 4]: 9.2 ± 0.7 µg/mL (≈ 30.1 µM)
IC50 [2, 4]: 30.4 ± 2.5 µM
CMI or CI80 Aspergillus fumigatus (AF980003) ([3]; Alamar Blue): 46 ± 5 μM and 14 ± 1.5 μg/ml
activity against Aspergillus fumigatus (in words) [3]: strong activity

Fc1ccc2c(c1)c(Cn1ccnc1)cn2Cc1ccc(Cl)cc1 [compound 15]
CMI or CI80 Candida albicans (CA980001) ([1]; 24 h at 37° C., MTT): 21 ± 1 μM and 7 ± 1 μg/ml
CI50 Leishmania mexicana Promastigotes [2, 4]: 5.4 ± 1.6 µg/mL (≈ 15.9 µM)
IC50 [2, 4]: 15.9 ± 5 µM
CMI or CI80 Aspergillus fumigatus (AF980003) ([3]; Alamar Blue): 61 ± 3 μM and 20.73 ± 3 μg/ml
activity against Aspergillus fumigatus (in words) [3]: strong activity

Fc1ccc(Cn2cc(Cn3ccnc3)c3ccccc32)c(F)c1 [compound 6]
CMI or CI80 Candida albicans (CA980001) ([1]; 24 h at 37° C., MTT): 48 ± 4 μM and 16 ± 2 μg/ml
CI50 Leishmania mexicana Promastigotes [2, 4]: 6 ± 0.5 µg/mL (≈ 18.6 µM)
IC50 [2, 4]: 18.5 ± 1.8 µM
CMI or CI80 Aspergillus fumigatus (AF980003) ([3]; Alamar Blue): 60 ± 2 μM and 19.4 ± 2 μg/ml
activity against Aspergillus fumigatus (in words) [3]: strong activity

Fc1ccc(Cn2cc(Cn3ccnc3)c3cccnc32)cc1 [Cpsé 88, 1-(4-Fluorobenzyl)-3-(1H-Imidazol-1ylmethyl)-1H-7-azaindole]
MIC [1, 5]: 0.7 ± 0.01 µM (≈ 0.214 µg/mL)
CMI or CI80 Candida albicans (CA980001) ([1]; 24 h at 37° C., MTT, listed as 51): 0.28 ± 0.01 µg/mL
activity of inhibition of Candida albicans (in words) [1]: most active
IC50 [2, 6]: 16.6 µM and 6.64 µg/mL
MIC [3, 7]: > 100 µM

Fc1ccc(Cn2ccc3cc(-c4nnn[nH]4)ccc32)cc1 [Cpsé 2, 1-(4-Fluorobenzyl)-5-(1H-tetrazol-5-yl)-1H-indole]
MIC [1, 5]: 64 ± 1 µM (≈ 18.8 µg/mL)
CMI or CI80 Candida albicans (CA980001) ([1]; 24 h at 37° C., MTT, listed as 4): 19.54 ± 1 µg/mL
activity against Leishmania mexicana (in words) [2]: strong activity
IC50 [2, 6]: 3 µg/mL and 10 µM
MIC [3, 7]: > 100 µM

CCC(c1cn(Cc2ccc(Cl)cc2)c2ccccc12)n1ccnc1.O=[N+]([O-])O (stereo not shown) [64n]
CMI or CI80 Candida albicans (CA980001) [1]: 36 ± 10 μM and 15 ± 4 μg/mL
CI50 Leishmania mexicana Promastigotes ([2]; promastigotes): 2.97 ± 0.02 µg/mL
IC50 ([2]; promastigotes): 7.2 ± 0.07 µM
CMI or CI80 Aspergillus fumigatus (AF980003) [3]: 57 ± 5 μM and 23.53 μg/mL
activity against Aspergillus fumigatus (in words) [3]: strong activity

Clc1ccc(Cn2cc(CCCCn3ccnc3)c3ccccc32)cc1.O=[N+]([O-])O [61n]
MIC [1]: >100 µM
CI50 Leishmania mexicana Promastigotes [2]: 20.05 ± 0.3 µg/mL
IC50 [2]: 62 ± 0.3 µM
MIC [3]: >100 µM

Clc1ccc(Cn2cc(CCn3ccnc3)c3ccccc32)cc1 [compound 59]
MIC [1]: >100 µM
CI50 Leishmania mexicana Promastigotes [2]: 15.6 µg/mL (≈ 46.5 µM)
IC50 [2]: 87 µM
MIC [3]: >100 µM

CCn1c(C)c(C(c2ccc(F)cc2)n2ccnc2)c2ccccc21 (stereo not shown) [compound 43]
CMI or CI80 Candida albicans (CA980001) [1]: 6 ± 1 μM and 2.0 ± 1 μg/mL
activity of inhibition of Candida albicans (in words) [1]: significant activity
CI50 Leishmania mexicana Promastigotes ([2]; promastigotes): 1.88 ± 0.1 µg/mL (≈ 5.64 µM)
IC50 ([2]; promastigotes): 5.9 ± 0.14 µM
CMI or CI80 Aspergillus fumigatus (AF980003) [3]: 53 ± 3 μM and 17 ± 1 μg/mL

CCn1ccc2cc(C(c3ccc(Cl)cc3)n3ccnc3)ccc21 (stereo not shown) [Cpsé 53, 5-[(4-Chlorophenyl)(1H-imidazol-1-yl)methyl]-1-ethyl-1H-indole]
MIC [1, 5]: > 100 µM
IC50 [2, 6]: > 100 µM
MIC [3, 7]: > 100 µM

CCCCC(c1cn(Cc2ccc(Cl)cc2)c2ccccc12)n1ccnc1.O=C(O)/C=C/C(=O)O (stereo not shown) [66f]
CMI or CI80 Candida albicans (CA980001) [1]: 7 ± 0.1 μM and 3.46 μg/mL
activity of inhibition of Candida albicans (in words) [1]: significant activity
CI50 Leishmania mexicana Promastigotes ([2]; promastigotes): 2.6 ± 0.03 µg/mL
IC50 ([2]; promastigotes): 5.4 ± 0.06 µM
MIC [3]: >100 µM

Clc1ccc(C(Cn2ccc3ccccc32)n2ccnc2)cc1 (stereo not shown) [compound 85]
MIC [1]: >100 µM
IC50 [2]: > 100 µM
CMI or CI80 Aspergillus fumigatus (AF980003) [3]: 88 ± 5 μM and 28 ± 2 μg/mL

Fc1ccc(Cn2c(Cn3ccnc3)cc3ccccc32)cc1 [Cpsé 3n, 1-(4-Fluorobenzyl)-2-(1H-imidazol-1-ylmethyl)-1H-indole]
MIC [1, 5]: 81 ± 14 µM (≈ 24.7 µg/mL)
CMI or CI80 Candida albicans (CA980001) ([1]; 24 h at 37° C., MTT, listed as 9): 32.46 ± 14 µg/mL
activity against Leishmania mexicana (in words) [2]: strong activity
IC50 [2, 6]: 3.4 µg/mL and 8.5 µM
MIC [3, 7]: 21 ± 0.3 µM (≈ 6.41 µg/mL)
CMI or CI80 Aspergillus fumigatus (AF980003) ([3]; Alamar Blue): 8 ± 1.2 µg/mL
activity against Aspergillus fumigatus (in words) [3]: most active

Clc1ccccc1Cn1cc(C2(Cn3ccnc3)CCCC2)c2ccccc21 [compound 62]
MIC [1]: >100 µM
CI50 Leishmania mexicana Promastigotes [2]: 28.38 µg/mL (≈ 72.8 µM)
IC50 [2]: 72.8 µM
MIC [3]: >100 µM

CCn1c(C(c2ccc(Cl)cc2Cl)n2ccnc2)c(C)c2cc(Br)ccc21 (stereo not shown) [compound 34]
CMI or CI80 Candida albicans (CA980001) [1]: 48 ± 0.5 μM and 22 ± 0.5 μg/mL
CI50 Leishmania mexicana Promastigotes [2]: 1.99 ± 0.04 µg/mL (≈ 4.3 µM)
activity against Leishmania mexicana (in words) [2]: strong activity
IC50 [2]: 4.28 ± 0.1 µM
MIC [3]: >100 µM

Fc1ccc(C(C(n2ccc3ccccc32)n2nnc3ccccc32)n2ccnc2)cc1 (stereo not shown) [Cpsé 83, 1-[2-(4-Fluorophenyl)-2-(1H-imidazol-1-yl)-1-(benzotriazol-1-yl)ethyl]-1H-indole]
MIC ([1]; Candida albicans, 24 h): 66 ± 6 µM (≈ 27.9 µg/mL)
CMI or CI80 Candida albicans (CA980001) ([1]; listed as 46): 26 ± 2 µg/mL
IC50 ([2]; Leishmania mexicana): 14 µg/mL and 35 µM
MIC ([3]; Aspergillus fumigatus): > 100 µM

CCN1CCc2cccc(C(c3cccc(Cl)c3)n3ccnc3)c21 (racemic) [compound 48]
CMI or CI80 Candida albicans (CA980001) ([1]; 24 h at 37° C., MTT): 0.06 ± 0.01 μM and 0.02 ± 0.01 μg/ml
activity of inhibition of Candida albicans (in words) [1]: most active
activity against Leishmania mexicana (in words) [2]: strong activity
CI50 Leishmania mexicana Promastigotes [2, 4]: 1 ± 0.3 µg/mL (≈ 2.96 µM)
IC50 [2, 4]: 3 ± 1 µM
CMI or CI80 Aspergillus fumigatus (AF980003) ([3]; Alamar Blue): 58 ± 4 μM and 26 ± 2 μg/ml
activity against Aspergillus fumigatus (in words) [3]: strong activity

CCn1c(C(c2cccc(Cl)c2)n2ccnc2)c(C)c2cc(Br)ccc21 (stereo not shown) [compound 32]
CMI or CI80 Candida albicans (CA980001) [1]: 62 ± 1 μM and 27 ± 0.5 μg/mL
activity against Leishmania mexicana (in words) [2]: most active
IC50 [2]: < 0.1 µM
CMI or CI80 Aspergillus fumigatus (AF980003) [3]: 66 ± 5 μM and 28 ± 2 μg/mL

Clc1ccc(Cn2cc(Cn3ccnc3)c3cc(Br)ccc32)cc1 [Cpsé 10, 5-Bromo-1-(4-chlorobenzyl)-3-(1H-imidazol-1-ylmethyl)-1H-indole]
MIC [1, 5]: > 100 µM
activity against Leishmania mexicana (in words) [2]: strong activity
IC50 [2, 6]: 3 µg/mL and 7.5 µM
MIC [3, 7]: > 100 µM

Fc1ccc(C(C(n2ccc3ccccc32)n2nnc3ccccc32)n2ccnc2)cc1 (mixture of isomers) [compound 83]
CMI or CI80 Candida albicans (CA980001) [1]: 55 ± 5 μM and 23 ± 2 μg/mL
CI50 Leishmania mexicana Promastigotes [2]: 1.85 ± 0.03 µg/mL
IC50 [2]: 4.4 ± 0.07 µM
MIC [3]: >100 µM

CC(c1cn(Cc2ccc(Cl)cc2Cl)c2ccccc12)n1ccnc1.O=C(O)/C=C/C(=O)O (stereo not shown) [68f]
CMI or CI80 Candida albicans (CA980001) [1]: 31 ± 7 μM and 15 ± 3 μg/mL
CI50 Leishmania mexicana Promastigotes ([2]; promastigotes): 2.7 ± 0.05 µg/mL
IC50 ([2]; promastigotes): 5.7 ± 0.13 µM
CMI or CI80 Aspergillus fumigatus (AF980003) [3]: 65 ± 3 μM and 31 ± 1 μg/mL
activity against Aspergillus fumigatus (in words) [3]: strong activity

Fc1ccccc1Cn1cc(Cn2ccnc2)c2cc(Br)ccc21 [compound 11]
MIC ([1]; 24 h at 37° C., MTT): >100 µM
CI50 Leishmania mexicana Promastigotes [2]: 18.3 ± 0.6 µg/mL (≈ 47.6 µM)
IC50 [2]: 47.7 ± 1.6 µM
MIC ([3]; Alamar Blue): >100 µM

Cc1c(C(C)n2ccnc2)c2ccccc2n1Cc1ccc(F)cc1 (stereo not shown) [compound 72]
CMI or CI80 Candida albicans (CA980001) [1]: 67 ± 3 μM and 22 ± 1 μg/mL
CI50 Leishmania mexicana Promastigotes [2]: 0.7 ± 0.3 µg/mL (≈ 2.1 µM)
IC50 [2]: 2 ± 1 µM
CMI or CI80 Aspergillus fumigatus (AF980003) [3]: 69 ± 1 μM and 23 ± 1 μg/mL

CCn1cc(C(c2ccc(F)cc2)n2ccnc2)c2cc(Br)ccc21 (stereo not shown) [Cpsé 46, 5-Bromo-1-ethyl-3-[(4-fluorophenyl)(1H-imidazol-1yl)methyl]-1H-indole]
MIC [1, 5]: > 100 µM
IC50 [2, 6]: 65 µM and 21 µg/mL
MIC [3, 7]: > 100 µM
